# Reference: ChEMBL document CHEMBL3822440, “Semi-synthesis and antiproliferative evaluation of PEGylated pentacyclic triterpenes” (Eur J Med Chem, 2016)
# Tests used:
# HepG2 [1] = assay: Disruption of mitochondrial membrane potential in human HepG2 cells assessed as rhodamine123 negative cells at cytotoxic IC50 after 72 hrs by propidium iodide staining based fluorescence spectroscopic analysis (reference value: 11.7 +/- 6.8%); assay type: functional
# HT-29 [2] = assay: Cell cycle arrest in human HT-29 cells assessed as accumulation at G0/G1 phase at cytotoxic IC50 after 72 hrs by propidium iodide staining based flow cytometry (reference value: 55.18 +/- 0.22%); assay type: functional
# HT-29 [3] = assay: Cell cycle arrest in human HT-29 cells assessed as accumulation at G2/M phase at cytotoxic IC50 after 72 hrs by propidium iodide staining based flow cytometry (reference value: 6.23 +/- 1.7%); assay type: functional
# HT-29 [4] = assay: Induction of apoptosis in human HT-29 cells assessed as late apoptotic cells at cytotoxic IC50 after 72 hrs by Annexin V-FITC/propidium iodide staining based flow cytometry (reference value: 0.65 +/- 0.35%); assay type: functional
# [5] = Disruption of mitochondrial membrane potential in mouse B16F10 cells assessed as rhodamine123 positive cells at cytotoxic IC50 after 72 hrs by propidium iodide staining based fluorescence spectroscopic analysis (reference value: 95.6 +/- 0.57%); assay type: functional, B16-F10
# HepG2 [6] = assay: Cytotoxicity against human HepG2 cells assessed as growth inhibition after 72 hrs by MTT assay; assay type: functional, cell-based; settings: HepG2, 72 h
# HepG2 [7] = assay: Cell cycle arrest in human HepG2 cells assessed as accumulation at G2/M phase at cytotoxic IC50 after 72 hrs by propidium iodide staining based flow cytometry (reference value: 8.47 +/- 2.55%); assay type: functional
# HepG2 [8] = assay: Disruption of mitochondrial membrane potential in human HepG2 cells assessed as rhodamine123 positive cells at cytotoxic IC50 after 72 hrs by propidium iodide staining based fluorescence spectroscopic analysis (reference value: 88.3 +/- 8.87%); assay type: functional
# [9] = Induction of apoptosis in mouse B16F10 cells assessed as live cells at cytotoxic IC50 after 72 hrs by Annexin V-FITC/propidium iodide staining based flow cytometry (reference value: 97.55 +/- 0.5%); assay type: functional, B16-F10
# HT-29 [10] = assay: Disruption of mitochondrial membrane potential in human HT-29 cells assessed as rhodamine123 negative cells at cytotoxic IC50 after 72 hrs by propidium iodide staining based fluorescence spectroscopic analysis (reference value: 5.8 +/- 0.42%); assay type: functional
# HepG2 [11] = assay: Induction of apoptosis in human HepG2 cells assessed as late apoptotic cells at cytotoxic IC50 after 72 hrs by Annexin V-FITC/propidium iodide staining based flow cytometry relative to control; assay type: functional
# HT-29 [12] = assay: Potency index, ratio of oleanolic acid IC50 to compound IC50 for human HT-29 cells; assay type: functional
# HT-29 [13] = assay: Disruption of mitochondrial membrane potential in human HT-29 cells assessed as rhodamine123 positive cells at cytotoxic IC50 after 72 hrs by propidium iodide staining based fluorescence spectroscopic analysis (reference value: 94.25 +/- 0.35%); assay type: functional
# [14] = Cell cycle arrest in mouse B16F10 cells assessed as accumulation at S phase at cytotoxic IC50 after 72 hrs by propidium iodide staining based flow cytometry (reference value: 48.31 +/- 0.74%); assay type: functional, B16-F10
# B16-F10 [15] = assay: Potency index, ratio of oleanolic acid IC50 to compound IC50 for mouse B16F10 cells; assay type: functional
# HT-29 [16] = assay: Induction of apoptosis in human HT-29 cells assessed as early apoptotic cells at cytotoxic IC50 after 72 hrs by Annexin V-FITC/propidium iodide staining based flow cytometry (reference value: 1.65 +/- 0.07%); assay type: functional
# [17] = Induction of apoptosis in mouse B16F10 cells assessed as early apoptotic cells at cytotoxic IC50 after 72 hrs by Annexin V-FITC/propidium iodide staining based flow cytometry (reference value: 0.75 +/- 0.07%); assay type: functional, B16-F10
# HepG2 [18] = assay: Induction of apoptosis in human HepG2 cells assessed as necrotic cells at cytotoxic IC50 after 72 hrs by Annexin V-FITC/propidium iodide staining based flow cytometry (reference value: 0.1 +/- 0.01%); assay type: functional
# HepG2 [19] = assay: Induction of apoptosis in human HepG2 cells assessed as live cells at cytotoxic IC50 after 72 hrs by Annexin V-FITC/propidium iodide staining based flow cytometry (reference value: 99.55 +/- 0.07%); assay type: functional
# HT-29 [20] = assay: Induction of apoptosis in human HT-29 cells assessed as live cells at cytotoxic IC50 after 72 hrs by Annexin V-FITC/propidium iodide staining based flow cytometry (reference value: 96.65 +/- 0.78%); assay type: functional
# [21] = Induction of apoptosis in mouse B16F10 cells assessed as necrotic cells at cytotoxic IC50 after 72 hrs by Annexin V-FITC/propidium iodide staining based flow cytometry (reference value: 0.75 +/- 0.07%); assay type: functional, B16-F10
# HT-29 [22] = assay: Cytotoxicity against human HT-29 cells assessed as growth inhibition after 72 hrs by MTT assay; assay type: functional, cell-based; settings: HT-29, 72 h
# [23] = Disruption of mitochondrial membrane potential in mouse B16F10 cells assessed as rhodamine123 negative cells at cytotoxic IC50 after 72 hrs by propidium iodide staining based fluorescence spectroscopic analysis (reference value: 4.45 +/- 0.64%); assay type: functional, B16-F10
# [24] = Cell cycle arrest in mouse B16F10 cells assessed as accumulation at G2/M phase at cytotoxic IC50 after 72 hrs by propidium iodide staining based flow cytometry (reference value: 1.01 +/- 0.13%); assay type: functional, B16-F10
# HT-29 [25] = assay: Induction of apoptosis in human HT-29 cells assessed as necrotic cells at cytotoxic IC50 after 72 hrs by Annexin V-FITC/propidium iodide staining based flow cytometry (reference value: 1.05 +/- 0.35%); assay type: functional
# [26] = Cytotoxicity against mouse B16F10 cells assessed as growth inhibition after 72 hrs by MTT assay; assay type: functional, cell-based; settings: B16-F10, 72 h
# [27] = Cell cycle arrest in mouse B16F10 cells assessed as accumulation at G0/G1 phase at cytotoxic IC50 after 72 hrs by propidium iodide staining based flow cytometry (reference value: 50.69 +/- 0.61%); assay type: functional, B16-F10
# HT-29 [28] = assay: Cell cycle arrest in human HT-29 cells assessed as accumulation at S phase at cytotoxic IC50 after 72 hrs by propidium iodide staining based flow cytometry (reference value: 48.31 +/- 1.49%); assay type: functional
# HepG2 [29] = assay: Potency index, ratio of oleanolic acid IC50 to compound IC50 for human HepG2 cells; assay type: functional
# HepG2 [30] = assay: Cell cycle arrest in human HepG2 cells assessed as accumulation at G0/G1 phase at cytotoxic IC50 after 72 hrs by propidium iodide staining based flow cytometry (reference value: 39.41 +/- 1.56%); assay type: functional
# HepG2 [31] = assay: Cell cycle arrest in human HepG2 cells assessed as accumulation at S phase at cytotoxic IC50 after 72 hrs by propidium iodide staining based flow cytometry (reference value: 54.71 +/- 2.37%); assay type: functional
# [32] = Induction of apoptosis in mouse B16F10 cells assessed as late apoptotic cells at cytotoxic IC50 after 72 hrs by Annexin V-FITC/propidium iodide staining based flow cytometry (reference value: 0.75 +/- 0.21%); assay type: functional, B16-F10
# HepG2 [33] = assay: Induction of apoptosis in human HepG2 cells assessed as early apoptotic cells at cytotoxic IC50 after 72 hrs by Annexin V-FITC/propidium iodide staining based flow cytometry (reference value: 0.3 +/- 0.01%); assay type: functional
# HepG2 [34] = assay: Potency index, ratio of maslinic acid IC50 to compound IC50 for human HepG2 cells; assay type: functional
# HT-29 [35] = assay: Potency index, ratio of maslinic acid IC50 to compound IC50 for human HT-29 cells; assay type: functional
# B16-F10 [36] = assay: Potency index, ratio of maslinic acid IC50 to compound IC50 for mouse B16F10 cells; assay type: functional
Structure (SMILES),Activity (HepG2 [1]) [%],Activity (HT-29 [2]) [%],Activity (HT-29 [3]) [%],Activity (HT-29 [4]) [%],Activity [5] [%],IC50 (HepG2 [6]) [µM],Activity (HepG2 [7]) [%],Activity (HepG2 [8]) [%],Activity [9] [%],Activity (HT-29 [10]) [%],Activity (HepG2 [11]) [%],Activity (HT-29 [13]) [%],Activity [14] [%],Activity (HT-29 [16]) [%],Activity [17] [%],Activity (HepG2 [18]) [%],Activity (HepG2 [19]) [%],Activity (HT-29 [20]) [%],Activity [21] [%],IC50 (HT-29 [22]) [µM],further results
COCCOCCOCC(=O)O[C@H]1CC[C@]2(C)[C@H]3CC=C4[C@@H]5CC(C)(C)CC[C@]5(C(=O)O)CC[C@@]4(C)[C@]3(C)CC[C@H]2C1(C)C,86.05,63.47,0,13.45,79.45,17.5,14.18,13.95,52.75,11.35,17.7,88.65,25.44,34.7,6.8,0.2,43.5,51.85,0.35,13.5,Ratio IC50 (HT-29 [12]): 31.9; Ratio IC50 (B16-F10 [15]): 6.2; Activity [23]: 20.65%; Activity [24]: 0.28%; Activity (HT-29 [25]): 0%; IC50 [26]: 17.2 µM; Activity [27]: 74.28%; Activity (HT-29 [28]): 49.98%; Ratio IC50 (HepG2 [29]): 12.1; Activity (HepG2 [30]): 38.88%; Activity (HepG2 [31]): 45.44%; Activity [32]: 39.6%; Activity (HepG2 [33]): 38.65%
CC1(C)CC[C@]2(C(=O)NCCCOCCOCCOCCCN)CC[C@]3(C)C(=CC[C@@H]4[C@@]5(C)CC[C@H](O)C(C)(C)[C@@H]5CC[C@]43C)[C@@H]2C1,19.6,87.11,8.12,7.45,20.75,0.22,0.34,80.45,27.55,76.3,22.45,23.75,31.33,19.7,59.65,0.35,41.35,72.45,0,3.58,Ratio IC50 (HT-29 [12]): 120.1; Ratio IC50 (B16-F10 [15]): 28.1; Activity [23]: 79.3%; Activity [24]: 4.78%; Activity (HT-29 [25]): 0.25%; IC50 [26]: 3.78 µM; Activity [27]: 63.89%; Activity (HT-29 [28]): 4.78%; Ratio IC50 (HepG2 [29]): 962.7; Activity (HepG2 [30]): 52.7%; Activity (HepG2 [31]): 46.97%; Activity [32]: 12.85%; Activity (HepG2 [33]): 35.9%
COCCOCCOCC(=O)O[C@@H]1C[C@]2(C)[C@H]3CC=C4[C@@H]5CC(C)(C)CC[C@]5(C(=O)OCc5ccccc5)CC[C@@]4(C)[C@]3(C)CC[C@H]2C(C)(C)[C@H]1OC(=O)COCCOCCOC,54.25,91.87,1.51,6.7,81.35,12.8,15.04,45.7,2.7,96.9,44.35,3.15,13.13,43.95,29.6,0,37,48.95,0.8,31.6,Ratio IC50 (HepG2 [34]): 7.8; Activity [23]: 18.6%; Ratio IC50 (HT-29 [35]): 1; Activity [24]: 3.85%; Activity (HT-29 [25]): 0.15%; IC50 [26]: 21.1 µM; Ratio IC50 (B16-F10 [36]): 1.7; Activity [27]: 83.03%; Activity (HT-29 [28]): 6.63%; Activity (HepG2 [30]): 65.2%; Activity (HepG2 [31]): 19.76%; Activity [32]: 67.25%; Activity (HepG2 [33]): 18.65%
